The target of data set [1] is T1, UMPKmt (uridine monophosphate kinase, Rv2883c) (Mycobacterium tuberculosis, UniProt P9WHK5). Briefly: coupled spectrophotometric kinase assay. The data set is classed as biochemical.
Target sequence in this assay (P9WHK5 whole entry, looked up): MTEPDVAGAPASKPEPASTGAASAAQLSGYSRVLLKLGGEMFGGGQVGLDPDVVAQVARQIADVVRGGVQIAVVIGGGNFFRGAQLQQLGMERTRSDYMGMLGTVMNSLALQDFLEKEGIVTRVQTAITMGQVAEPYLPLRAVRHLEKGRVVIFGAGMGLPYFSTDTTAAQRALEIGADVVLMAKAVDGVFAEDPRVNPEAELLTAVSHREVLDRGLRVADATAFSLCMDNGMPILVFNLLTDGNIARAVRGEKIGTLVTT
Data set [2] deals with T1, UMPKmt (uridine monophosphate kinase, Rv2883c). As to the kind of experiment: X-ray crystal structure. The data set is classed as biochemical.
Target sequence in this assay (P9WHK5 whole entry): as the sequence (P9WHK5 whole entry, looked up) above
Data set [3] has the same target. Briefly: coupled spectrophotometric kinase assay. The data set is classed as biochemical. The source holds these as a separate data set.
Target sequence in this assay (P9WHK5 whole entry, looked up): as above
Data set [4] shares this target. As to the kind of experiment: coupled spectrophotometric kinase assay. The data set is classed as biochemical. This is another data set of the same source.
Target sequence in this assay (P9WHK5 whole entry, looked up): as above
The test system of data set [5] is O=c1ccn([C@@H]2O[C@H](COP(=O)(O)O)[C@@H](O)[C@H]2O)c(=O)[nH]1. As to the kind of experiment: purified protein.

Like-named read-outs stand apart in the source and are kept apart here.

In general, IC50 refers to the concentration needed to halve the response being measured. Higher therefore signals weaker potency. The EC50 is the concentration needed to bring the measured effect to its halfway point. High values mean a need for much substance, low ones an effect from little substance. One may read the Km as the substrate concentration at which the rate is half of its maximum.

In data set [1], `O=c1[nH]c(=O)n([C@@H]2O[C@H](COP(=O)(O)OP(=O)(O)OP(=O)(O)O)[C@@H](O)[C@H]2O)cc1Br` [5Br-UTP] displayed an IC50 of 100 µM. Consider `O=c1[nH]c(=O)n([C@@H]2O[C@H](COP(=O)(O)OP(=O)(O)OP(=O)(O)O)[C@@H](O)[C@H]2O)cc1I` [5I-UTP], for which half-maximal inhibition in data set [1] (IC50) required 20 µM. As to `Nc1nc2c(ncn2[C@@H]2O[C@H](COP(=O)(O)OP(=O)(O)OP(=O)(O)O)[C@@H](O)[C@H]2O)c(=O)[nH]1` [GTP], the response in data set [2] was half-maximal at 100 µM (EC50). Compound `O=c1ccn([C@@H]2O[C@H](COP(=O)(O)OP(=O)(O)OP(=O)(O)O)[C@@H](O)[C@H]2O)c(=O)[nH]1` [UTP] had a 50% inhibitory concentration (IC50) in data set [3] of 100 µM. On to `Nc1nc2c(ncn2[C@H]2C[C@H](O)[C@@H](COP(=O)(O)OP(=O)(O)OP(=O)(O)O)O2)c(=O)[nH]1` [dGTP], for which the “coupled spectrophotometric kinase assay (activation, similar to GTP)” value in data set [4] was “dGTP, Mant-GTP and 6-methylthio GTP exhibited similar properties to GTP in terms of both affinity and extent of activation”. `Cc1cn([C@H]2C[C@H](O)[C@@H](COP(=O)(O)OP(=O)(O)OP(=O)(O)O)O2)c(=O)[nH]c1=O` [dTTP] yielded an IC50 in data set [1] of 400 µM. The same measure, in the same setting: for `O=c1ccn([C@H]2C[C@H](O)[C@@H](COP(=O)(O)OP(=O)(O)OP(=O)(O)O)O2)c(=O)[nH]1` [dUTP] the value was 240 µM. As for “UMPKmt (uridine monophosphate kinase, Rv2883c) (Mycobacterium tuberculosis H37Rv)”, in data set [5], the Km is 19.6 ± 1.8 µM.

Source of the values: paper PMC3082897 (2010).
